According to patent US20230085307A1, “PYRIDAZINONE COMPOUND AND HERBICIDE” (NISSAN CHEMICAL CORPORATION, priority 2019, published 2023):

What was measured:
velvetleaf [1] = assay: Test Example 4: herbicidal effect by soil treatment (Table 19, symbol M); type: in vivo, velvetleaf (Abutilon theophrasti); conditions: AAH 80 g/ha
In short: (§1)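 Pre-emergence style soil spray: seeds under ~1.5 cm sterilized diluvial soil received a uniform coat of emulsion diluted to the predetermined herbicide amount. Greenhouse 25–30° C; readout at week three on previously defined criteria.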

Italian ryegrass [2] = assay: Test Example 5: herbicidal effect by foliage application, plastic box (Table 20, symbol K); type: in vivo, Italian ryegrass (Lolium multiflorum); conditions: foliage application, 80 g/ha, 3 weeks after application
In short: (§2)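 Plants were sown into sterilized diluvial soil under about 1.5 cm cover and kept in a greenhouse at 25° C. to 30° C. Fourteen days on, foliage received an even spray of the diluted emulsion. Herbicidal or crop effect was judged three weeks afterwards.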

green foxtail [3] = assay: Test Example 5: herbicidal effect by foliage application, plastic box (Table 20, symbol G); type: in vivo, green foxtail (Setaria viridis); conditions: foliage application, 80 g/ha, 3 weeks after application
In short: as §2

persian speedwell [4] = assay: Test Example 5: herbicidal effect by foliage application, plastic box (Table 20, symbol R); type: in vivo, Persian speedwell (Veronica persica); conditions: foliage application, 80 g/ha, 3 weeks after application
In short: as §2

lambsquarters [5] = assay: Test Example 4: herbicidal effect by soil treatment (Table 19, symbol O); type: in vivo, lambsquarters (Chenopodium album); conditions: AAH 80 g/ha
In short: as §1

lambsquarters [6] = assay: Test Example 5: herbicidal effect by foliage application, plastic box (Table 20, symbol O); type: in vivo, lambsquarters (Chenopodium album); conditions: foliage application, 80 g/ha, 3 weeks after application
In short: as §2

persian speedwell [7] = assay: Test Example 4: herbicidal effect by soil treatment (Table 19, symbol R); type: in vivo, Persian speedwell (Veronica persica); conditions: AAH 80 g/ha
In short: as §1

chickweed = assay: Test Example 4: herbicidal effect by soil treatment (Table 19, symbol P); type: in vivo, common chickweed (Stellaria media); conditions: AAH 80 g/ha
In short: as §1

barnyard grass [8] = assay: Test Example 4: herbicidal effect by soil treatment (Table 19, symbol H); type: in vivo, barnyard grass (Echinochloa crus-galli); conditions: AAH 80 g/ha
In short: as §1

windgrass [9] = assay: Test Example 4: herbicidal effect by soil treatment (Table 19, symbol L); type: in vivo, windgrass (Apera spica-venti); conditions: AAH 80 g/ha
In short: as §1

rice flat sedge = assay: Test Example 3: herbicidal effect by foliage application, Wagner pot (Table 18, symbol E); type: in vivo, rice flat sedge (Cyperus iria); conditions: 80 g/ha
In short: (§3)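 Plants were sown in alluvial soil held under 0.1–0.5 cm standing water and grown 14 days in a greenhouse at 25–30 °C. An emulsifiable formulation, water-diluted to the set dose, was then sprayed onto the foliage, and effects were scored three weeks later using previously defined criteria.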

barnyard grass [10] = assay: Test Example 5: herbicidal effect by foliage application, plastic box (Table 20, symbol H); type: in vivo, barnyard grass (Echinochloa crus-galli); conditions: foliage application, 80 g/ha, 3 weeks after application
In short: as §2

blackgrass [11] = assay: Test Example 5: herbicidal effect by foliage application, plastic box (Table 20, symbol J); type: in vivo, blackgrass (Alopecurus myosuroides); conditions: foliage application, 80 g/ha, 3 weeks after application
In short: as §2

Chinese sprangletop = assay: Test Example 3: herbicidal effect by foliage application, Wagner pot (Table 18, symbol D); type: in vivo, chinese sprangletop (Leptochloa chinensis); conditions: 80 g/ha
In short: as §3

blackgrass [12] = assay: Test Example 4: herbicidal effect by soil treatment (Table 19, symbol J); type: in vivo, blackgrass (Alopecurus myosuroides); conditions: AAH 80 g/ha
In short: as §1

late watergrass = assay: Test Example 1: herbicidal activity, application before weed generation under submerged conditions (Table 16, symbol A); type: in vivo, late watergrass (Echinochloa oryzicola); conditions: 80 g/ha applied herbicide
In short: (§4)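 Alluvial soil was flooded to 4 cm depth, weed seeds were sown mixed and 2.5-leaf rice seedlings were transplanted. On sowing day, the compound's emulsion, diluted in water to a set dose, was applied to the water surface. Plants grew at 25–30 °C and were scored 0–5 after three weeks.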

southern crabgrass [13] = assay: Test Example 5: herbicidal effect by foliage application, plastic box (Table 20, symbol F); type: in vivo, southern crabgrass (Digitaria ciliaris); conditions: foliage application, 80 g/ha, 3 weeks after application
In short: as §2

southern crabgrass [14] = assay: Test Example 4: herbicidal effect by soil treatment (Table 19, symbol F); type: in vivo, southern crabgrass (Digitaria ciliaris); conditions: AAH 80 g/ha
In short: as §1

wild oat [15] = assay: Test Example 5: herbicidal effect by foliage application, plastic box (Table 20, symbol I); type: in vivo, wild oat (Avena fatua); conditions: foliage application, 80 g/ha, 3 weeks after application
In short: as §2

oval-leafed pondweed = assay: Test Example 1: herbicidal activity, application before weed generation under submerged conditions (Table 16, symbol C); type: in vivo, oval-leafed pondweed (Monochoria vaginalis); conditions: 80 g/ha applied herbicide
In short: as §4

wild oat [16] = assay: Test Example 4: herbicidal effect by soil treatment (Table 19, symbol I); type: in vivo, wild oat (Avena fatua); conditions: AAH 80 g/ha
In short: as §1

Japanese bulrush = assay: Test Example 1: herbicidal activity, application before weed generation under submerged conditions (Table 16, symbol B); type: in vivo, Japanese bulrush (Schoenoplectus juncoides); conditions: 80 g/ha applied herbicide
In short: as §4

Italian ryegrass [17] = assay: Test Example 4: herbicidal effect by soil treatment (Table 19, symbol K); type: in vivo, Italian ryegrass (Lolium multiflorum); conditions: AAH 80 g/ha
In short: as §1

redroot pigweed = assay: Test Example 4: herbicidal effect by soil treatment (Table 19, symbol N); type: in vivo, redroot pigweed (Amaranthus retroflexus); conditions: AAH 80 g/ha
In short: as §1

barnyard grass [18] = assay: Test Example 3: herbicidal effect by foliage application, Wagner pot (Table 18, symbol H); type: in vivo, barnyard grass (Echinochloa crus-galli); conditions: 80 g/ha
In short: as §3

velvetleaf [19] = assay: Test Example 5: herbicidal effect by foliage application, plastic box (Table 20, symbol M); type: in vivo, velvetleaf (Abutilon theophrasti); conditions: foliage application, 80 g/ha, 3 weeks after application
In short: as §2

green foxtail [20] = assay: Test Example 4: herbicidal effect by soil treatment (Table 19, symbol G); type: in vivo, green foxtail (Setaria viridis); conditions: AAH 80 g/ha
In short: as §1

windgrass [21] = assay: Test Example 5: herbicidal effect by foliage application, plastic box (Table 20, symbol L); type: in vivo, windgrass (Apera spica-venti); conditions: foliage application, 80 g/ha, 3 weeks after application
In short: as §2

CC=CCOc1ccc(-c2sc3ccccc3c2-c2c(O)c(C)nn(C)c2=O)cc1 [1-211]
M: velvetleaf, herbicidal effect rating (velvetleaf [1]): 0 (Herbicidal rate of 5% or less (almost no effect)) | effect on Italian ryegrass (K) (Italian ryegrass [2]): 3 (Herbicidal rate of 40% or more and less than 70%) | effect on green foxtail (G) (green foxtail [3]): 5 (Herbicidal rate of 90% or more (almost completely withered)) | effect on persian speedwell (R) (persian speedwell [4]): 5 (Herbicidal rate of 90% or more (almost completely withered)) | O: lambsquarters, herbicidal effect rating (lambsquarters [5]): 0 (Herbicidal rate of 5% or less (almost no effect)) | effect on lambsquarters (O) (lambsquarters [6]): 5 (Herbicidal rate of 90% or more (almost completely withered)) | R: persian speedwell, herbicidal effect rating (persian speedwell [7]): 0 (Herbicidal rate of 5% or less (almost no effect)) | P: chickweed, herbicidal effect rating (chickweed): 0 (Herbicidal rate of 5% or less (almost no effect)) | H: barnyard grass, herbicidal effect rating (barnyard grass [8]): 0 (Herbicidal rate of 5% or less (almost no effect)) | L: windgrass, herbicidal effect rating (windgrass [9]): 0 (Herbicidal rate of 5% or less (almost no effect)) | herbicidal effect on E (rice flat sedge), rating 0-5 (rice flat sedge): 4 (Herbicidal rate of 70% or more and less than 90%) | effect on barnyard grass (H) (barnyard grass [10]): 3 (Herbicidal rate of 40% or more and less than 70%) | effect on blackgrass (J) (blackgrass [11]): 2 (Herbicidal rate of 20% or more and less than 40%) | herbicidal effect on D (Chinese sprangletop), rating 0-5 (Chinese sprangletop): 4 (Herbicidal rate of 70% or more and less than 90%) | J: blackgrass, herbicidal effect rating (blackgrass [12]): 0 (Herbicidal rate of 5% or less (almost no effect)) | Herbicidal effect on A: late watergrass (grade 0-5) (late watergrass): 5 (Herbicidal rate of 90% or more (almost completely withered)) | effect on southern crabgrass (F) (southern crabgrass [13]): 3 (Herbicidal rate of 40% or more and less than 70%) | F: southern crabgrass, herbicidal effect rating (southern crabgrass [14]): 0 (Herbicidal rate of 5% or less (almost no effect)) | effect on wild oat (I) (wild oat [15]): 0 (Herbicidal rate of 5% or less (almost no effect)) | Herbicidal effect on C: oval-leafed pondweed (grade 0-5) (oval-leafed pondweed): 3 (Herbicidal rate of 40% or more and less than 70%) | I: wild oat, herbicidal effect rating (wild oat [16]): 0 (Herbicidal rate of 5% or less (almost no effect)) | Herbicidal effect on B: Japanese bulrush (grade 0-5) (Japanese bulrush): 3 (Herbicidal rate of 40% or more and less than 70%) | K: Italian ryegrass, herbicidal effect rating (Italian ryegrass [17]): 0 (Herbicidal rate of 5% or less (almost no effect)) | N: redroot pigweed, herbicidal effect rating (redroot pigweed): 3 (Herbicidal rate of 40% or more and less than 70%) | herbicidal effect on H (barnyard grass), rating 0-5 (barnyard grass [18]): 4 (Herbicidal rate of 70% or more and less than 90%) | effect on velvetleaf (M) (velvetleaf [19]): 4 (Herbicidal rate of 70% or more and less than 90%) | G: green foxtail, herbicidal effect rating (green foxtail [20]): 0 (Herbicidal rate of 5% or less (almost no effect)) | effect on windgrass (L) (windgrass [21]): 0 (Herbicidal rate of 5% or less (almost no effect))
